The results in this text go back to US12404239B2, “Modulators of BCL6 as ligand directed degraders” (Celgene Corporation, priority 2022, dated 2025).

Each structure is given as a SMILES string. Some results are limits rather than exact numbers.

The test deals with T1, BCL6 (Homo sapiens, UniProt P41182).
T1 construct: HiBiT-tag knocked into endogenous BCL6 locus using CRISPR; endogenous in cells; host or cells: DHL-4_BCL6_HiBiT cells (CRISPR knock-in)
Put plainly: BCL6_HiBiT degradation assay (2 h). The test is classed as cell-based. The settings on record: DHL-4_BCL6_HiBiT cells, read-out: YCon (% remaining maximal effect). Here is the method: A DHL-4 cell line with HiBiT-tag knocked into endogenous BCL6 locus using CRISPR was generated. The DHL-4_BCL6_HiBiT cells were dispensed into 384-well plates (Corning no. 3570) that were pre-spotted with compounds. Compounds were dispensed by an acoustic dispenser (ATS acoustic transfer system from EDC Biosystems) into a 384-well plate in a 10-point dose response curve using 3-fold dilutions starting at 1-10 μM and going down to […]. 25 μL of media (RPMI-1640+10% heat inactivated FBS+1×Pen/Strep) containing 2500 of DHL-4 was dispensed per well. Assay plates were incubated at 37° C. with 5% CO2 for 2 hours. After incubation, 25 μL of the Nano-Glo HiBiT lytic detection working solution (Promega, catalogue no. N3040, Madison, WI) was added to each well and incubated at room temperature for 15-30 min, protected from light. After 30 min, luminescence was read on an Envision or PHERAstar luminescence reader. To determine the EC50 value (the half-maximum effective concentration) and the level of the gradation (Yconstant) of a BCL6 degrader, luminescent signal normalized by DMSO control (Y) and compound concentration (x) was fitted using a four-parameter dose-response model (Y=(A+((B−A)/1+((C/x)^D) in Dotmatics. Fitted value C is the degradation EC50 and the minimum value A is the Y constant.
The degradation of BCL6 at 2 h in DHL-4 results are shown in Table 5, where EC50 is the half maximal effect and Ycon is the % remaining maximal effect.
As to `C[C@@H]1CN(c2ncc(Cl)c(Nc3ccc4c(c3)CC(=O)N4CCN3CCOCC3)n2)CC[C@H]1Nc1ccc2c([C@@H]3CCC(=O)NC3=O)nn(C)c2c1` (single isomer, unassigned) [Example 103], the Percent BCL6 remaining at maximal degradation (Ycon) was below 20%.
Take `CNCCN1C(=O)Cc2cc(Nc3nc(N4CC[C@@H](Nc5ccc6c([C@H]7CCC(=O)NC7=O)nn(C)c6c5)[C@H](C)C4)ncc3Cl)ccc21` (single isomer, unassigned) [Example 105]: the Percent BCL6 remaining at maximal degradation (Ycon) is below 20%.
In the case of `CNCCN1C(=O)Cc2cc(Nc3nc(N4CC[C@@H](Nc5ccc6c([C@@H]7CCC(=O)NC7=O)nn(C)c6c5)[C@H](C)C4)ncc3Cl)ccc21` (single isomer, unassigned) [Example 106] it was below 20%; in that of `C[C@@H]1CN(c2ncc(Cl)c(Nc3ccc4c(c3)CC(=O)N4CCC(C)(C)F)n2)CC[C@H]1Nc1ccc2c([C@H]3CCC(=O)NC3=O)nn(C)c2c1` (single isomer, unassigned) [Example 108], below 20%.
Consider `C[C@@H]1CN(c2ncc(Cl)c(Nc3ccc4c(c3)CC(=O)N4CCC(C)(C)F)n2)CC[C@H]1Nc1ccc2c([C@@H]3CCC(=O)NC3=O)nn(C)c2c1` (single isomer, unassigned) [Example 109], for which the Percent BCL6 remaining at maximal degradation (Ycon) was below 20%.
In the case of `C[C@@H]1CN(c2ncc(Cl)c(Nc3ccc4c(c3)CC(=O)N4CC(C)(F)F)n2)CC[C@H]1Nc1ccc2c([C@H]3CCC(=O)NC3=O)nn(C)c2c1` (single isomer, unassigned) [Example 111], the Percent BCL6 remaining at maximal degradation (Ycon) is below 20%.
Consider `C[C@@H]1CN(c2ncc(Cl)c(Nc3ccc4c(c3)CC(=O)N4CC(C)(F)F)n2)CC[C@H]1Nc1ccc2c([C@@H]3CCC(=O)NC3=O)nn(C)c2c1` (single isomer, unassigned) [Example 112], for which the Percent BCL6 remaining at maximal degradation (Ycon) was below 20%.
As for `CN1C(=O)Cc2cc(Nc3nc(N(C)[C@H]4CCN(c5ccc6c(C7CCC(=O)NC7=O)nn(C)c6c5)C(=O)C4)ncc3Cl)ccc21` (single isomer, unassigned) [Example 128], the Percent BCL6 remaining at maximal degradation (Ycon) was in the range of 20 to 60%.
For `CN1C(=O)Cc2cc(Nc3nc(N(C)[C@@H]4CCN(c5ccc6c(C7CCC(=O)NC7=O)nn(C)c6c5)C(=O)C4)ncc3Cl)ccc21` (single isomer, unassigned) [Example 129], the Percent BCL6 remaining at maximal degradation (Ycon) is below 20%.
Turning to `C[C@H]1C(=O)N(c2ccc3c(C4CCC(=O)NC4=O)nn(C)c3c2)CC[C@@H]1N(C)c1ncc(Cl)c(Nc2ccc3c(c2)CC(=O)N3C)n1` (single isomer, unassigned) [Example 130], the Percent BCL6 remaining at maximal degradation (Ycon) was above 60%.
On to `C[C@@H]1C(=O)N(c2ccc3c(C4CCC(=O)NC4=O)nn(C)c3c2)CC[C@H]1N(C)c1ncc(Cl)c(Nc2ccc3c(c2)CC(=O)N3C)n1` (single isomer, unassigned) [Example 131], for which the Percent BCL6 remaining at maximal degradation (Ycon) was below 20%.
In the case of `CN1C(=O)Cc2cc(Nc3nc(N4CC[C@@H](Nc5ccc6c(C7CCC(=O)NC7=O)nn(C)c6c5)[C@@H](C(F)(F)F)C4)ncc3Cl)ccc21` (single isomer, unassigned) [Example 148] it was above 60%.
In the case of `CN1C(=O)Cc2cc(Nc3nc(N4CCC(Nc5ccc6c(C7CCC(=O)NC7=O)nn(C)c6c5)CC45CCC5)ncc3Cl)ccc21` (centres unmarked) [Example 1, 3-(6-((5-(5-chloro-4-((1-methyl-2-oxoindolin-5-yl)amino)pyrimidin-2-yl)-5-azaspiro[3.5]nonan-8-yl)amino)-1-methyl-1H-indazol-3-yl)piperidine-2,6-dione] it was 20 to 60%; in that of `CN1C(=O)Cc2cc(Nc3nc(N(C)C4CCN(c5ccc6c(C7CCC(=O)NC7=O)nn(C)c6c5)C5(CCC5)C4)ncc3Cl)ccc21` (centres unmarked) [Example 2, 3-(6-(8-((5-chloro-4-((1-methyl-2-oxoindolin-5-yl)amino)pyrimidin-2-yl)(methyl)amino)-5-azaspiro[3.5]nonan-5-yl)-1-methyl-1H-indazol-3-yl)piperidine-2,6-dione], below 20%.
